Experimental data as given in patent publication US20200207822A1, “PEPTIDE INHIBITORS OF INTERLEUKIN-23 RECEPTOR AND THEIR USE TO TREAT INFLAMMATORY DISEASES” (Protagonist Therapeutics, Inc., priority 2017, published 2020).
Positions of bridges follow the written chain, without caps; N, C: chain ends. Non-standard residues stand in square brackets, D forms with d. 2Nal = N[C@@H](Cc1ccc2ccccc2c1)C(=O)O; AEF = NCCOc1ccc(C[C@H](N)C(=O)O)cc1; αMeL = CC(C)C[C@](C)(N)C(=O)O; Pen = CC(C)(S)[C@H](N)C(=O)O; Thp = NC1(C(=O)O)CCOCC1; Abu = CC[C@H](N)C(=O)O

T1: interleukin-23 receptor (IL-23R) (human, UniProt Q5VWK5 24-629)
T1 sequence (looked up): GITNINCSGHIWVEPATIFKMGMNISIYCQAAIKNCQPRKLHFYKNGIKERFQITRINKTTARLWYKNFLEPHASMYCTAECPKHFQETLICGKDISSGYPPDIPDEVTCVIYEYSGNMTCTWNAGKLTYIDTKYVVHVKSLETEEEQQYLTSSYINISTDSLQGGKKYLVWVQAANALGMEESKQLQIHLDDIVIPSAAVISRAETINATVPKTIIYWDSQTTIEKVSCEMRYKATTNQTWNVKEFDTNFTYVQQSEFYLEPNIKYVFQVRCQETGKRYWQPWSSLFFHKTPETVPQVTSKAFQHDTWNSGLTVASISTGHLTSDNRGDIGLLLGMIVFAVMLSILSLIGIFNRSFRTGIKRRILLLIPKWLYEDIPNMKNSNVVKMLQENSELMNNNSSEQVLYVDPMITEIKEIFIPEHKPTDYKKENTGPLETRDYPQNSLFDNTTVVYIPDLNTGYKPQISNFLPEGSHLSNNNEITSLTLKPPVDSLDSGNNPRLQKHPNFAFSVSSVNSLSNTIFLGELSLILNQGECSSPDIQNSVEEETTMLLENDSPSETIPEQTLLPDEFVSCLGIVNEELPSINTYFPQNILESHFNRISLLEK

B1: SEQ ID NO 105 (peptide)
peptide: XXQTXQCXXXENN
modifications: Ac-[(D)Arg]-cyclo[[Abu]-QT-[Trp(5-F)]-QC]-[Phe[4-(2-aminoethoxy)]-[2-Nal]-[α-MeLeu]-ENN-NH2
B2: SEQ ID NO 107 (peptide)
peptide: XXQTWQCXXXENN
modifications: Ac-[(D)Arg]-cyclo[[Abu]-QTWQC]-[Phe[4-(2-aminoethoxy)]-[2-Nal]-[α-MeLeu]-ENN-NH2
B3: SEQ ID NO 71 (peptide)
peptide: XXQTWQCXXXENN
modifications: Alexa488-[PEG4]-[(D)Arg]-cyclo[[Abu]-QTWQC]-[Phe[4-(2-aminoethoxy)]-[2-Nal]-[4-amino-4-carboxy-tetrahydropyran]-ENN-NH2
B4: SEQ ID NO 97 (peptide)
peptide: XXQTWXCXXXENN
modifications: Ac-[(D)Arg]-cyclo[[Abu]-QTW-[β-homoGln]-C]-[Phe[4-(2-aminoethoxy)]-[2-Nal]-[4-amino-4-carboxy-tetrahydropyran]-ENN-NH2
B5: SEQ ID NO 106 (peptide)
peptide: XQTXQCXXXENN
modifications: Ac-cyclo[[Abu]-QT-[Trp(5-F)]-QC]-[Phe[4-(2-aminoethoxy)]-[2-Nal]-[α-MeLeu]-ENN-NH2

Each molecule was assayed on IL-23R-expressing DB cells stimulated with IL-23 (pSTAT3 levels) (assay: DB cells IL23R pSTAT3 cell assay (Cisbio HTRF pSTAT3)). Conditions: Table E2, thioether peptides, IL-23 0.5 nM, 30 minutes at 37° C.
Type: cell-based, human
Excerpt: Human ELISA indicates the IL23-IL23R competitive binding assay described below, Rat ELISA indicates the rat IL-23R competitive binding ELISA assay described below, and pStat3HTRF indicates the DB cells IL-23R pSTAT3 cell assay described below. The peptides depicted in Table E1 are cyclized via a disulfide bridge formed between two Pen residues in these peptides. The peptides depicted in Table E2 are cyclized via a thioether bond between the indicated amino acid residues. Table E2 provides an illustrative structure depicting thioether cyclization, which is indicated in the table by the term “cyclo,” with the cyclic region bracketed immediately following the term “cyclo.” For certain peptides, the residue Abu is present where indicated, whereas in other embodiments, e.g., those related to the non-cyclized form, the Abu may be referred to as a hSer(Cl) or homoSer residue.
DB Cells IL23R pSTAT3 Cell Assay
IL-23 plays a central role in supporting and maintaining Th17 differentiation in vivo. […] This cell assay examines the levels of pSTAT3 in IL-23R-expressing DB cells when stimulated with IL-23 in the presence of test compounds.
With “82 (Ac-[dR][Abu]ETWEC[AEF][2Nal][Thp]ENN-NH2; thioether 2-7) [compound 82]” the IC50 was 1 to 10 nM.
“84 (XXQTWQCXXXEND; MOD_RES (1)..(1) D-form arginine; MOD_RES (2)..(2) Abu; (2)..(7) residues cyclosized; MOD_RES (8)..(8) 4-(2-aminoethoxy)-L-phenylalanine; MOD_RES (9)..(9) L-2-Napthylalanine; MOD_RES (10)..(10) 4-amino-4-carboxy-tetrahydropyran) [compound 84]” gave an IC50 of 10 to 100 nM.
Molecule “85 (XXQTWQCXXXEDN; MOD_RES (1)..(1) D-form arginine; MOD_RES (2)..(2) Abu; (2)..(7) residues cyclosized; MOD_RES (8)..(8) 4-(2-aminoethoxy)-L-phenylalanine; MOD_RES (9)..(9) L-2-Napthylalanine; MOD_RES (10)..(10) 4-amino-4-carboxy-tetrahydropyran) [compound 85]” has an IC50 of 10 to 100 nM.
“86 (XXQTWECXXXENN; MOD_RES (1)..(1) D-form arginine; MOD_RES (2)..(2) Abu; (2)..(7) residues cyclosized; MOD_RES (8)..(8) 4-(2-aminoethoxy)-L-phenylalanine; MOD_RES (9)..(9) L-2-Napthylalanine; MOD_RES (10)..(10) 4-amino-4-carboxy-tetrahydropyran) [compound 86]” showed an IC50 of 1 to 10 nM.
“99 (XXQTWFCXXXENN; MOD_RES (1)..(1) D-form arginine; MOD_RES (2)..(2) Abu; (2)..(7) residues cyclosized; MOD_RES (8)..(8) 4-(2-aminoethoxy)-L-phenylalanine; MOD_RES (9)..(9) L-2-Napthylalanine; MOD_RES (10)..(10) 4-amino-4-carboxy-tetrahydropyran) [compound 99]” gave an IC50 of 10 to 100 nM.
Work on “100 (XXQTWWCXXXENN; MOD_RES (1)..(1) D-form arginine; MOD_RES (2)..(2) Abu; (2)..(7) residues cyclosized; MOD_RES (8)..(8) 4-(2-aminoethoxy)-L-phenylalanine; MOD_RES (9)..(9) L-2-Napthylalanine; MOD_RES (10)..(10) 4-amino-4-carboxy-tetrahydropyran) [compound 100]” yielded an IC50 of 1 to 10 nM.
“102 (XXQTWTCXXXENN; MOD_RES (1)..(1) D-form arginine; MOD_RES (2)..(2) Abu; (2)..(7) residues cyclosized; MOD_RES (8)..(8) 4-(2-aminoethoxy)-L-phenylalanine; MOD_RES (9)..(9) L-2-Napthylalanine; MOD_RES (10)..(10) 4-amino-4-carboxy-tetrahydropyran) [compound 102]” showed an IC50 of 10 to 100 nM.
Molecule “103 (XXQTWVCXXXENN; MOD_RES (1)..(1) D-form arginine; MOD_RES (2)..(2) Abu; (2)..(7) residues cyclosized; MOD_RES (8)..(8) 4-(2-aminoethoxy)-L-phenylalanine; MOD_RES (9)..(9) L-2-Napthylalanine; MOD_RES (10)..(10) 4-amino-4-carboxy-tetrahydropyran) [compound 103]” has an IC50 of 10 to 100 nM.

Same assay, conditions: Table L3 (E3), additional peptide inhibitors, IL-23 0.5 nM, 30 minutes at 37° C.
Molecule “154 (XXQTWKCXXXENN; MOD_RES (1)..(1) D-form arginine; MOD_RES (2)..(2) Abu; (2)..(7) residues cyclosized; MOD_RES (6)..(6) PEG12 conjugation; MOD_RES (8)..(8) 4-(2-aminoethoxy)-L-phenylalanine; MOD_RES (9)..(9) L-2-Napthylalanine; MOD_RES (10)..(10) 4-amino-4-carboxy-tetrahydropyran) [compound 154]” has an IC50 of 1 to 10 nM.
“156 (XXQTWQCXXXKNN; MOD_RES (1)..(1) D-form arginine; MOD_RES (2)..(2) Abu; (2)..(7) residues cyclosized; MOD_RES (8)..(8) 4-(2-aminoethoxy)-L-phenylalanine; MOD_RES (9)..(9) L-2-Napthylalanine; MOD_RES (10)..(10) 4-amino-4-carboxy-tetrahydropyran; MOD_RES (11)..(11) PEG12 conjugation) [compound 156]” showed an IC50 of 1 to 10 nM.
Molecule “158 (XNTWQXXXXKNND; MOD_RES (1)..(1) L-Penicillamine; MOD_RES (6)..(6) L-Penicillamine; MOD_RES (7)..(7) 4-(2-aminoethoxy)-L-phenylalanine; MOD_RES (8)..(8) L-2-Napthylalanine; MOD_RES (9)..(9) alpha-methyl-L-Leucine; MOD_RES (10)..(10) …ON) [compound 158]” has an IC50 of 1 to 10 nM.
“160 (XNTWQXXXXKNNW; MOD_RES (1)..(1) L-Penicillamine; MOD_RES (6)..(6) L-Penicillamine; MOD_RES (7)..(7) 4-(2-aminoethoxy)-L-phenylalanine; MOD_RES (8)..(8) L-2-Napthylalanine; MOD_RES (9)..(9) alpha-methyl-L-Leucine; MOD_RES (10)..(10) …ON) [compound 160]” showed an IC50 of 1 to 10 nM.
With “162 (XNTWQXXXXKNNL; MOD_RES (1)..(1) L-Penicillamine; MOD_RES (6)..(6) L-Penicillamine; MOD_RES (7)..(7) 4-(2-aminoethoxy)-L-phenylalanine; MOD_RES (8)..(8) L-2-Napthylalanine; MOD_RES (9)..(9) alpha-methyl-L-Leucine; MOD_RES (10)..(10) …ON) [compound 162]” the IC50 was 1 to 10 nM.
“163 (XNTWQXXXXKNNG; MOD_RES (1)..(1) L-Penicillamine; MOD_RES (6)..(6) L-Penicillamine; MOD_RES (7)..(7) 4-(2-aminoethoxy)-L-phenylalanine; MOD_RES (8)..(8) L-2-Napthylalanine; MOD_RES (9)..(9) alpha-methyl-L-Leucine; MOD_RES (10)..(10) …ON) [compound 163]” was tested, and the IC50 was 1 to 10 nM.
In the case of “179 (Ac-K(Ac)[Pen]NTWQ[Pen][AEF][2Nal][αMeL]K(Ac)NN-NH2; disulfide 2-7 (inferred)) [compound 179]”, the IC50 is reported as 1 to 10 nM.
“180 (Ac-K(Ac)[Pen]NTWQ[Pen][4‑Carbamoyl‑L‑phenylalanine][2Nal][αMeL]K(Ac)NN-NH2; disulfide 2-7 (inferred)) [compound 180]” gave an IC50 of 1 to 10 nM.
Molecule “181 (XNTWQXXXXKNNK; MOD_RES (1)..(1) L-Penicillamine; MOD_RES (6)..(6) L-Penicillamine; MOD_RES (7)..(7) 4-(2-aminoethoxy)-L-phenylalanine; MOD_RES (8)..(8) L-2-Napthylalanine; MOD_RES (9)..(9) alpha-methyl-L-Leucine; MOD_RES (10)..(10) …ON; MOD_RES (13)..(13) …ON) [compound 181]” has an IC50 of 1 to 10 nM.
“182 (Ac-[Pen]NTWQ[Pen][4‑Carbamoyl‑L‑phenylalanine][2Nal][αMeL]K(Ac)NNK(Ac)-NH2; disulfide 1-6 (inferred)) [compound 182]” gave an IC50 of 1 to 10 nM.

What follows are molecules tested against T1, interleukin-23 receptor (IL-23R) (assay: cell-based or functional assay). Conditions: not given.
With B1 the “IC50, pStat3 HTRF (nM)” value was less than 1 nM.
B2 was tested, and the “IC50, pStat3 HTRF (nM)” value was less than 1 nM.
In the case of B3, the “IC50, pStat3 HTRF (nM)” value is reported as less than 1 nM.
With B4 the “IC50, pStat3 HTRF (nM)” value was greater than 100 nM.
For B5, the “IC50, pStat3 HTRF (nM)” value was less than 1 nM.
